In patent US20050282743A1, “Molecular interactions in cells” (Arbor Vita Corporation, priority 2001, published 2005):
Ends that are not written are not given here. Peptide text beside a SMILES is read from it. * marks the point of attachment. Biotin = O=C1N[C@H]2[C@H](CS[C@H]2CCCCC(=O)*)N1

Experiments:
Assay in all cases: G' assay (10 uM PL peptide), results of TABLE 7 and TABLE 12
Assay type in all cases: binding
[1] = target: T1, PDZ protein (GST-PDZ fusion) (Homo sapiens, UniProt Q9UDY2)
T1 construct: made in house; host or cells: E. coli (DH5alpha, BL21 or JM109)
T1 sequence (Q9UDY2 1-1190): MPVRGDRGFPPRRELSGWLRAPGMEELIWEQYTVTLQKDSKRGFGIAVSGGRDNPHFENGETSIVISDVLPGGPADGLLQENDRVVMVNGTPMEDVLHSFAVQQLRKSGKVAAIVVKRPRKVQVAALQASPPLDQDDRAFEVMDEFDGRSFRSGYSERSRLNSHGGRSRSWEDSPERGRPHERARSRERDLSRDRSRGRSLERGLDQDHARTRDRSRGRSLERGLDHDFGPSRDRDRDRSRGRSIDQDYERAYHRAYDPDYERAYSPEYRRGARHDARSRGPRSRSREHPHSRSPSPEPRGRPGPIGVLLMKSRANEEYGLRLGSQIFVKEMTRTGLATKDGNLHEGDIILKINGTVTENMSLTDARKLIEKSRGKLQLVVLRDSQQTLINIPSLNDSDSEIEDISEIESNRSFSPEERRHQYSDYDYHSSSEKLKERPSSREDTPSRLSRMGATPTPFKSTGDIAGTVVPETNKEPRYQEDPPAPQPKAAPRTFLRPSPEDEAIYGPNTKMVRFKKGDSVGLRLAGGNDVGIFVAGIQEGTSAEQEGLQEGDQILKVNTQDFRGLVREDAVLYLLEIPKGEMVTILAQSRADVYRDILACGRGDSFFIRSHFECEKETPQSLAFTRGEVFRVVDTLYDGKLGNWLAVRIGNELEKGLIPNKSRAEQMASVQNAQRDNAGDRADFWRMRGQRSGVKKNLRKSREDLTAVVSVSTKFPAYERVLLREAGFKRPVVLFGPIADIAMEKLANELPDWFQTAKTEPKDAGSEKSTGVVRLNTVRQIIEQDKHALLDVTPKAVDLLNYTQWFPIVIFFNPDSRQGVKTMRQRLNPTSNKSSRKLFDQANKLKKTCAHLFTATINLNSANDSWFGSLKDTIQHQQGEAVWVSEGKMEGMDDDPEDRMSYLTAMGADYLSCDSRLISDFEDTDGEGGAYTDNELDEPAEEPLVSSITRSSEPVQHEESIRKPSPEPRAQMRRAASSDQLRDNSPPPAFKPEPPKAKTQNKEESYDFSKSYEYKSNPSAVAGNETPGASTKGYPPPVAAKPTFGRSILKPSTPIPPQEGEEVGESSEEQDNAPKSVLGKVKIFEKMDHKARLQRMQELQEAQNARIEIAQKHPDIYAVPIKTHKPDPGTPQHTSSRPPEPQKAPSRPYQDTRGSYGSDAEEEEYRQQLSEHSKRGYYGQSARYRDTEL
In short: (§1)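 Binding classes derive from A450 nm of bound biotin-tagged PL peptide. A score of 5 needs A450 above 4 in more than two repeats.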

[2] = target: T2, PDZ protein (GST-PDZ fusion) (Homo sapiens, UniProt O14745)
T2 construct: made in house; host or cells: E. coli (DH5alpha, BL21 or JM109)
T2 sequence (O14745 1-358): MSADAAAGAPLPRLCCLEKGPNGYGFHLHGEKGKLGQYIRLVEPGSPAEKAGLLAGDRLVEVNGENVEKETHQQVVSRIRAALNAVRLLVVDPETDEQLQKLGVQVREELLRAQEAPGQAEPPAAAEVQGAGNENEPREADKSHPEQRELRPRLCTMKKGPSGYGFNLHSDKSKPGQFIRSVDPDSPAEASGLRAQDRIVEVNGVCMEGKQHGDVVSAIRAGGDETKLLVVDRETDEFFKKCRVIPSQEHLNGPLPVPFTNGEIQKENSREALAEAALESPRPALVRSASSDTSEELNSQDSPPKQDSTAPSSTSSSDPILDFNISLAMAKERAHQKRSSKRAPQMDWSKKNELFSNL
In short: as §1

[3] = target: T3, PDZ protein (GST-PDZ fusion) (Homo sapiens, UniProt Q9BYB0); settings: PDZ SHANK3, PDZ Domain 1
T3 construct: made in house; host or cells: E. coli (DH5alpha, BL21 or JM109)
In short: as §1

[4] = target: T4, PDZ protein (GST-PDZ fusion) (Homo sapiens, UniProt Q9C0E4)
T4 construct: made in house; host or cells: E. coli (DH5alpha, BL21 or JM109)
In short: as §1

T4 sequence (Q9C0E4 whole entry, the tested form may be a part): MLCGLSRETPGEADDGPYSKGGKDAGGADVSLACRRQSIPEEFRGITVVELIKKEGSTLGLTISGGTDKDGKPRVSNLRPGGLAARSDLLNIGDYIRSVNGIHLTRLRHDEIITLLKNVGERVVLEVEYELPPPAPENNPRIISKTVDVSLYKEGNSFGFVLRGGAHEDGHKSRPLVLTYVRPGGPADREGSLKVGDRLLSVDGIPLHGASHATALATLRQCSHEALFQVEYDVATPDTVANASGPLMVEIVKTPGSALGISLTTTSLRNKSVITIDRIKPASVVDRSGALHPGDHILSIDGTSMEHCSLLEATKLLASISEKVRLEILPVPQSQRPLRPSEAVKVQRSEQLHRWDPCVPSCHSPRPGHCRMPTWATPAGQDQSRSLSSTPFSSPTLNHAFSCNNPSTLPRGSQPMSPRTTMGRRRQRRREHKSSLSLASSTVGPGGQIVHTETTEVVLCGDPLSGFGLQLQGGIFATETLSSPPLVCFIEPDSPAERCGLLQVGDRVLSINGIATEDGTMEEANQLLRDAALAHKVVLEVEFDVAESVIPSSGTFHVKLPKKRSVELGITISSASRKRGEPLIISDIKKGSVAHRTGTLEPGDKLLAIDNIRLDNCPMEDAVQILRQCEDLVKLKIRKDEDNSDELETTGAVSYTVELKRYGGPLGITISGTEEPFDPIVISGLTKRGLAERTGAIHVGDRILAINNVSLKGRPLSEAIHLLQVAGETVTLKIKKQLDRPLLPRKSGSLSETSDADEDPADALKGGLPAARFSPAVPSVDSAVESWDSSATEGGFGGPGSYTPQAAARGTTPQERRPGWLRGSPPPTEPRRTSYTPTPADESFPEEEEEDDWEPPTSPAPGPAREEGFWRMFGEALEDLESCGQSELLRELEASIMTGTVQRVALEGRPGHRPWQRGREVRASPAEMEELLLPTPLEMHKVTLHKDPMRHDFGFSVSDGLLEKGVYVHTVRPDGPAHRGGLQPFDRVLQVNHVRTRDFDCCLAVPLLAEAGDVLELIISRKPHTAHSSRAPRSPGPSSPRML
T3 sequence (Q9BYB0 whole entry, the tested form may be a part): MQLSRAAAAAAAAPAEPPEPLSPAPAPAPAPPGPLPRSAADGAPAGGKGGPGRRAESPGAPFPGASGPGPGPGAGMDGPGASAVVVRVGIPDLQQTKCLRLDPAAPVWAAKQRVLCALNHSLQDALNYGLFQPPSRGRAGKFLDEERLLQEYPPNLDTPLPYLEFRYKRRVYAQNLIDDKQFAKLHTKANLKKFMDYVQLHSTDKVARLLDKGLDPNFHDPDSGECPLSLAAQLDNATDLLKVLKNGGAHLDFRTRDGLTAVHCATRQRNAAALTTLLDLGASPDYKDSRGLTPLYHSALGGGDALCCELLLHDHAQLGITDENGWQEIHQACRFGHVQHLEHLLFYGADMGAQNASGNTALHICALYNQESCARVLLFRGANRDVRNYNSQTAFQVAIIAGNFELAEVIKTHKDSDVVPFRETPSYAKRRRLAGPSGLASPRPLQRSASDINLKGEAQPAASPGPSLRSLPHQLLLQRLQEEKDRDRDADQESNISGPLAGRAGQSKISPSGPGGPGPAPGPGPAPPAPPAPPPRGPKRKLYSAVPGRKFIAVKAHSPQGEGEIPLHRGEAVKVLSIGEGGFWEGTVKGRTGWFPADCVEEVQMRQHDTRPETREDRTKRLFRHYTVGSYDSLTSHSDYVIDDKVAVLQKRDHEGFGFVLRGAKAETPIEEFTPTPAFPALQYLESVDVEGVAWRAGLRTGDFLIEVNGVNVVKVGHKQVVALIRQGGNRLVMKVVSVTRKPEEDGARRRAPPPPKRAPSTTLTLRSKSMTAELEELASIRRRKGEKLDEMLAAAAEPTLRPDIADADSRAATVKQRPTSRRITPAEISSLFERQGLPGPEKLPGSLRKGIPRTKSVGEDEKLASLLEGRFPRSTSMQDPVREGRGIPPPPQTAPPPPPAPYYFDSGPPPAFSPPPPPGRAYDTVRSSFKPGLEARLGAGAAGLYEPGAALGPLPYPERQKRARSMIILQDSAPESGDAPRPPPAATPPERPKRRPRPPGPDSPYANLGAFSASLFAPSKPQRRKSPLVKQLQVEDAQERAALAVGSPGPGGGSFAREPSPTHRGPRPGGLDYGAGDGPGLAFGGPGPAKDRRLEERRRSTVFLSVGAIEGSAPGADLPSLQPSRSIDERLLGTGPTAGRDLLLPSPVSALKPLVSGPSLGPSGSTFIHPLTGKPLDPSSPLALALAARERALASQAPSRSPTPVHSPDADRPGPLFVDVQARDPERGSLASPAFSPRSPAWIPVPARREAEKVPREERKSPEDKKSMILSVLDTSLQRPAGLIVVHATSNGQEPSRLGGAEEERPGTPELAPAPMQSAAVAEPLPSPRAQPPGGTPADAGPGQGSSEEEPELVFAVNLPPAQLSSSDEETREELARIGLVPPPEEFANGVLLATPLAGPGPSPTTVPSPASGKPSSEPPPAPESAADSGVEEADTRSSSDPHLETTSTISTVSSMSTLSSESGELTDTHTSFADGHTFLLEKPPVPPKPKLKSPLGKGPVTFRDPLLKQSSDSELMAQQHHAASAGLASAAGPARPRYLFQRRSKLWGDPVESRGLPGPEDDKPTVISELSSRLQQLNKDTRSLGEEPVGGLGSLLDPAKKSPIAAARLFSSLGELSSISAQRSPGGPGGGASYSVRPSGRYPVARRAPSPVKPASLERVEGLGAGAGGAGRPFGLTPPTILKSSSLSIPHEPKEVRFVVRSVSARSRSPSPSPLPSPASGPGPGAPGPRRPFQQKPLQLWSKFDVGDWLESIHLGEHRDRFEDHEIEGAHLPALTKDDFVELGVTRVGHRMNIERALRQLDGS

Classification ([2]; PDZ EBP50, PDZ Domain 1) | Classification ([2]; PDZ EBP50, PDZ Domain 2) | Classification [3] | Compound | Classification ([1]; PDZ ZO-2, PDZ Domain 1) | also measured
 |  |  | GPVPGEPAKPKTSAHHATFV (Biotin-GPVPGEPAKPKTSAHHATFV) | 1 (A450 nm 0-1) | 
2 (A450 nm 1-2) | 2 (A450 nm 1-2) | 3 (A450 nm 2-3) | CC[C@H](C)[C@H](NC(=O)CNC(=O)[C@H](CO)NC(=O)[C@H](Cc1ccccc1)NC(=O)[C@@H](NC(=O)[C@H](CS)NC(=O)CNC(=O)CNC(=O)[C@H](C)NC(=O)[C@@H]1CCCN1C(=O)[C@@H](NC(=O)[C@@H]1CCCN1C(=O)CCCC[C@@H]1SC[C@@H]2NC(=O)N[C@@H]21)[C@@H](C)CC)[C@@H](C)O)C(=O)N[C@@H](Cc1ccccc1)C(=O)N1CCC[C@H]1C(=O)N[C@H](C(=O)N[C@@H](CC(C)C)C(=O)N[C@H](C(=O)N[C@@H](CO)C(=O)N1CCC[C@H]1C(=O)N[C@@H](CC(C)C)C(=O)O)[C@@H](C)O)[C@@H](C)O [KIA 1481] (Biotin-PIPAGGCTFSGIFPTLTSPL-OH; C-terminus assumed) |  | 
 |  |  | CSCC[C@H](NC(=O)[C@H](C)NC(=O)[C@H](CCCNC(=N)N)NC(=O)CNC(=O)[C@@H](NC(=O)[C@H](Cc1c[nH]c2ccccc12)NC(=O)[C@H](CCCNC(=N)N)NC(=O)CNC(=O)CCCC[C@@H]1SC[C@@H]2NC(=O)N[C@@H]21)[C@@H](C)O)C(=O)N[C@@H](CO)C(=O)N[C@@H](C)C(=O)N[C@@H](Cc1c[nH]c2ccccc12)C(=O)N[C@@H](CCCCN)C(=O)N1CCC[C@H]1C(=O)N[C@H](C(=O)N[C@@H](CCCNC(=N)N)C(=O)N[C@@H](CCCNC(=N)N)C(=O)N[C@@H](CCC(=O)O)C(=O)N[C@H](C(=O)N[C@@H](CCC(=O)O)C(=O)N[C@H](C(=O)O)C(C)C)[C@@H](C)O)[C@@H](C)O [HPV E6 #35 (modified)] (Biotin-GRWTGRAMSAWKPTRRETEV-OH; C-terminus assumed) | 2 (A450 nm 1-2) | Classification ([4]; PDZ KIAA1719, PDZ Domain 5): 1 (A450 nm 0-1)
2 (A450 nm 1-2) | 1 (A450 nm 0-1) | 3 (A450 nm 2-3) | CC(C)C[C@H](NC(=O)CNC(=O)[C@@H](NC(=O)[C@H](CO)NC(=O)[C@H](CC(N)=O)NC(=O)[C@H](Cc1ccccc1)NC(=O)CNC(=O)[C@H](C)NC(=O)[C@H](C)NC(=O)[C@H](Cc1ccccc1)NC(=O)[C@@H](NC(=O)CCCC[C@@H]1SC[C@@H]2NC(=O)N[C@@H]21)[C@@H](C)O)[C@@H](C)O)C(=O)N1CCC[C@H]1C(=O)N[C@@H](Cc1c[nH]cn1)C(=O)N[C@@H](CO)C(=O)N[C@H](C(=O)N[C@H](C(=O)N[C@@H](CCCNC(=N)N)C(=O)N[C@H](C(=O)O)C(C)C)[C@@H](C)O)[C@@H](C)O [Neuroligin] (Biotin-TFAAGFNSTGLPHSTTRV-OH; C-terminus assumed) |  | 
 |  |  | CC(C)C[C@H](NC(=O)[C@H](CCCNC(=N)N)NC(=O)CNC(=O)CNC(=O)[C@H](CCCNC(=N)N)NC(=O)[C@H](C)NC(=O)[C@@H]1CCCN1C(=O)[C@H](CCCNC(=N)N)NC(=O)CNC(=O)CNC(=O)[C@@H](NC(=O)[C@H](C)NC(=O)CCCC[C@@H]1SC[C@@H]2NC(=O)N[C@@H]21)C(C)C)C(=O)N[C@@H](CCC(N)=O)C(=O)NCC(=O)N[C@@H](CCCNC(=N)N)C(=O)N[C@@H](CCCNC(=N)N)C(=O)N[C@@H](CCC(N)=O)C(=O)N[C@H](C(=O)N[C@@H](CCC(N)=O)C(=O)N[C@H](C(=O)O)C(C)C)[C@@H](C)O [HPV E6 58 (modified)] (Biotin-AVGGRPARGGRLQGRRQTQV-OH; C-terminus assumed) | 3 (A450 nm 2-3) | 
 |  |  | ELLQFCRTPNPALKNGQYWV (Biotin-ELLQFCRTPNPALKNGQYWV) | 5 (A450 nm of 4 more than 2× repeated) | Classification ([4]; PDZ KIAA1719, PDZ Domain 6): 5 (A450 nm of 4 more than 2× repeated); Classification ([1]; PDZ ZO-2, PDZ Domain 2): 1 (A450 nm 0-1)
 |  |  | A2AA_HUMAN (modified) (Biotin-HDFRRAFKKILARGDRKRIV; not fully specified) |  | Classification ([4]; PDZ KIAA1719, PDZ Domain 4): 3 (A450 nm 2-3); Classification ([1]; PDZ ZO-2, PDZ Domain 2): 2 (A450 nm 1-2)
 |  |  | CC[C@H](C)[C@H](NC(=O)[C@H](CCCCN)NC(=O)[C@@H](NC(=O)[C@H](CO)NC(=O)[C@@H]1CCCN1C(=O)[C@H](Cc1ccccc1)NC(=O)[C@@H](NC(=O)[C@@H](NC(=O)[C@H](CCCNC(=N)N)NC(=O)[C@H](CCC(=O)O)NC(=O)[C@H](CC(C)C)NC(=O)[C@H](CC(C)C)NC(=O)[C@H](CC(C)C)NC(=O)[C@@H](NC(=O)CNC(=O)[C@@H](NC(=O)CCCC[C@@H]1SC[C@@H]2NC(=O)N[C@@H]21)C(C)C)[C@@H](C)O)C(C)C)[C@@H](C)CC)C(C)C)C(=O)N[C@@H](C)C(=O)N[C@H](C(=O)N[C@@H](CC(C)C)C(=O)N[C@H](C(=O)O)C(C)C)[C@@H](C)O [Adenovirus E4 Type9] |  | Classification ([1]; PDZ ZO-2, PDZ Domain 1, PL peptide 10 uM): 3 (A450 nm 2-3)
 |  | 2 (A450 nm 1-2) | CC[C@H](C)[C@H](NC(=O)[C@H](CO)NC(=O)[C@H](CCC(=O)O)NC(=O)[C@H](Cc1ccc(O)cc1)NC(=O)[C@H](CC(=O)O)NC(=O)[C@H](CC(N)=O)NC(=O)[C@H](CCC(=O)O)NC(=O)[C@H](CCCCN)NC(=O)CCCC[C@@H]1SC[C@@H]2NC(=O)N[C@@H]21)C(=O)N[C@@H](CO)C(=O)N[C@@H](CC(=O)O)C(=O)N[C@@H](CC(C)C)C(=O)N[C@@H](CCC(N)=O)C(=O)N[C@@H](CCC(N)=O)C(=O)NCC(=O)N[C@@H](CCCNC(=N)N)C(=O)N[C@@H](CC(=O)O)C(=O)N[C@H](C(=O)N[C@H](C(=O)N[C@@H](CCCNC(=N)N)C(=O)N[C@@H](CC(C)C)C(=O)O)[C@@H](C)O)[C@@H](C)CC [PAG] (Biotin-KENDYESISDLQQGRDITRL-OH; C-terminus assumed) |  | 
1 (A450 nm 0-1) | 2 (A450 nm 1-2) | 1 (A450 nm 0-1) | LASKSAEEGKQIPDSLSTDL (Biotin-LASKSAEEGKQIPDSLSTDL) [Dock2] |  | 

Compound | Classification ([2]; PDZ EBP50, PDZ Domain 1) | Classification ([2]; PDZ EBP50, PDZ Domain 2) | Classification [3] | Classification ([1]; PDZ ZO-2, PDZ Domain 1) | also measured
CC(C)C[C@H](NC(=O)[C@H](C)NC(=O)[C@@H](NC(=O)[C@@H](NC(=O)[C@H](Cc1c[nH]cn1)NC(=O)[C@H](CC(C)C)NC(=O)CNC(=O)[C@H](CCC(N)=O)NC(=O)CNC(=O)CNC(=O)[C@H](C)NC(=O)[C@H](C)NC(=O)[C@H](CCCNC(=N)N)NC(=O)[C@H](C)NC(=O)[C@H](CO)NC(=O)[C@H](CC(=O)O)NC(=O)[C@H](CC(=O)O)NC(=O)[C@H](Cc1c[nH]c2ccccc12)NC(=O)[C@H](C)NC(=O)CCCC[C@@H]1SC[C@@H]2NC(=O)N[C@@H]21)C(C)C)[C@@H](C)O)C(=O)O [LPAP] (Biotin-AWDDSARAAGGQGLHVTAL-OH; C-terminus assumed) | 5 (A450 nm of 4 more than 2× repeated) | 4 (A450 nm 3-4) | 3 (A450 nm 2-3) |  | 
